# Target: T1, peroxisome proliferator-activated receptor-α (PPARα) (Homo sapiens, UniProt Q07869)
# T1 sequence (Q07869 196-468 limits assumed): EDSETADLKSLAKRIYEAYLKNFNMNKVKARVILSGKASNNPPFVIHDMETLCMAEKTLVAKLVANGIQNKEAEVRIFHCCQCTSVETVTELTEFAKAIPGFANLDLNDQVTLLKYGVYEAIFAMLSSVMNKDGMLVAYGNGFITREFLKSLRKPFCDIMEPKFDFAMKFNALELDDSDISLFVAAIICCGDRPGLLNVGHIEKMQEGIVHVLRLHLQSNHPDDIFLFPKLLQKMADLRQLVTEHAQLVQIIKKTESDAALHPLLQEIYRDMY
# Assay: GAL4-PPARα LBD one-hybrid luciferase transactivation assay in HEK293 cells
# Assay type: cell-based
smiles,measurement,value
"CCCCCCCC[C@@H](O)CCCCCCCCC(=O)O [HSA, (R)‐10‐hydroxyoctadecanoic acid]",EC50,5.43 µM
